Test results taken from PubChem BioAssay AID248 (DTP/NCI, 2004).
Inconclusive results and toxic doses are left out. Rule as the data show it: active = T/C of 150% or more; inactive = T/C below 125%. Square brackets hold non-standard residues; d marks the D form. Peptide text beside a SMILES is read from it. ξ: configuration not given here. ξI = CCC(C)C(N)C(=O)O

Tested on: L1210 leukemia ip in BDF1 mice, survival T/C
Assay: NCI In Vivo Anticancer Drug Screen. Data for tumor model L1210 Leukemia (intraperitoneal) in B6D2F1 (BDF1) mice
Conditions: endpoint: mean survival time, higher = longer survival
Procedure, shortened: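 Mice bearing the transplanted tumor received compound or vehicle. Survival of the treated group was divided by that of the vehicle-treated control group to give the ratio.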

[1] = dose: 100.0 mg/kg/injection, schedule: Q01DX009 (ip), vehicle: Klucel (hydroxypropylcellulose) (HPC)
[2] = dose: 100.0 mg/kg/injection, schedule: Q04DX003 (ip), vehicle: Klucel (hydroxypropylcellulose) (HPC)
[3] = dose: 200.0 mg/kg/injection, schedule: Q01DX009 (ip), vehicle: Klucel (hydroxypropylcellulose) (HPC)
[4] = dose: 200.0 mg/kg/injection, schedule: Q04DX003 (ip), vehicle: Klucel (hydroxypropylcellulose) (HPC)
[5] = dose: 400.0 mg/kg/injection, schedule: Q01DX009 (ip), vehicle: Klucel (hydroxypropylcellulose) (HPC)
[6] = dose: 50.0 mg/kg/injection, schedule: Q01DX001 (ip), vehicle: saline
[7] = dose: 100.0 mg/kg/injection, schedule: Q01DX001 (ip), vehicle: saline
[8] = dose: 50.0 mg/kg/injection, schedule: Q01DX009 (ip), vehicle: Klucel (hydroxypropylcellulose) (HPC)
[9] = dose: 100.0 mg/kg/injection, schedule: Q04DX003 (ip), vehicle: saline
[10] = dose: 200.0 mg/kg/injection, schedule: Q04DX003 (ip), vehicle: saline
[11] = dose: 400.0 mg/kg/injection, schedule: Q04DX003 (ip), vehicle: saline
[12] = dose: 50.0 mg/kg/injection, schedule: Q01DX009 (ip), vehicle: saline
[13] = dose: 100.0 mg/kg/injection, schedule: Q01DX009 (ip), vehicle: saline

Measured: T/C

Cc1ccc([I+]c2ccc(C)cc2C)c(C)c1
inactive: dose: 0.25 mg/kg/injection, schedule: Q01DX015 (ip), vehicle: saline 96 % of control | dose: 0.5 mg/kg/injection, schedule: Q01DX015 (ip), vehicle: saline 96 % of control | dose: 1.0 mg/kg/injection, schedule: Q01DX015 (ip), vehicle: saline 97 % of control | dose: 1.56 mg/kg/injection, schedule: Q01DX009 (ip), vehicle: saline with Tween-80 112 % of control | dose: 1.56 mg/kg/injection, schedule: Q04DX003 (ip), vehicle: saline 95 % of control | dose: 2.0 mg/kg/injection, schedule: Q01DX015 (ip), vehicle: saline 97 % of control | dose: 3.12 mg/kg/injection, schedule: Q01DX009 (ip), vehicle: saline with Tween-80 119 % of control | dose: 3.12 mg/kg/injection, schedule: Q04DX003 (ip), vehicle: saline 91 % of control | dose: 6.25 mg/kg/injection, schedule: Q01DX009 (ip), vehicle: saline with Tween-80 110 % of control | dose: 6.25 mg/kg/injection, schedule: Q04DX003 (ip), vehicle: saline 95 % of control | dose: 12.5 mg/kg/injection, schedule: Q01DX001 (ip), vehicle: saline 94 % of control | dose: 25.0 mg/kg/injection, schedule: Q01DX001 (ip), vehicle: saline 100 % of control

COC(=O)C1(C)CCCC2(C)C3CCC4(C)CC3(CCO4)CCC12 (stereo not drawn)
inactive: dose: 200.0 mg/kg/injection, schedule: Q04DX002 (ip), vehicle: Klucel (hydroxypropylcellulose) (HPC) 87 % of control | dose: 400.0 mg/kg/injection, schedule: Q04DX002 (ip), vehicle: Klucel (hydroxypropylcellulose) (HPC) 95 % of control

COc1ccc(C(=O)c2ccc(Br)s2)cc1
inactive: [1] 94 % of control | [2] 97 % of control | [3] 97 % of control | [4] 97 % of control | [5] 95 % of control | dose: 400.0 mg/kg/injection, schedule: Q04DX003 (ip), vehicle: Klucel (hydroxypropylcellulose) (HPC) 96 % of control

Cc1nc2ccccc2[nH]1
inactive: dose: 25.0 mg/kg/injection, schedule: Q04DX002 (ip), vehicle: Klucel (hydroxypropylcellulose) (HPC) 109 % of control | dose: 50.0 mg/kg/injection, schedule: Q04DX002 (ip), vehicle: Klucel (hydroxypropylcellulose) (HPC) 105 % of control | dose: 100.0 mg/kg/injection, schedule: Q04DX002 (ip), vehicle: Klucel (hydroxypropylcellulose) (HPC) 105 % of control

COc1ccccc1CN1CCCN(Cc2ccccc2OC)C1c1ccccn1
inactive: [6] 100 % of control | [7] 100 % of control | dose: 200.0 mg/kg/injection, schedule: Q01DX001 (ip), vehicle: saline 100 % of control

c1ccc(C2C(c3ccccc3)N2CCCN2CCOCC2)cc1 (stereo not drawn)
inactive: [8] 106 % of control | [1] 103 % of control | [2] 88 % of control | [3] 107 % of control | [4] 93 % of control

COc1ccccc1C(=O)N/N=C/c1ccncc1
inactive: [1] 94 % of control | [3] 94 % of control | [5] 97 % of control

CCC(C)C(NC(=O)CN)C(=O)O (stereo not drawn) (H-Gly-[ξI]-OH)
inactive: dose: 100.0 mg/kg/injection, schedule: Q04DX002 (ip), vehicle: saline with Tween-80 97 % of control | [9] 98 % of control | dose: 200.0 mg/kg/injection, schedule: Q04DX002 (ip), vehicle: saline with Tween-80 102 % of control | [10] 98 % of control | dose: 400.0 mg/kg/injection, schedule: Q04DX002 (ip), vehicle: saline with Tween-80 97 % of control | [11] 91 % of control

O=CNC1(CO)CCCCC1
inactive: dose: 75.0 mg/kg/injection, schedule: Q01DX001 (ip), vehicle: saline 105 % of control | dose: 150.0 mg/kg/injection, schedule: Q01DX001 (ip), vehicle: saline 102 % of control | dose: 300.0 mg/kg/injection, schedule: Q01DX001 (ip), vehicle: saline 96 % of control

O=C(c1cccc(C(=O)N(c2ccccc2)C2CCCCC2)c1)N(c1ccccc1)C1CCCCC1
inactive: [1] 100 % of control | [3] 94 % of control | [5] 98 % of control

O=C(CCN1CC1)Nc1ccccc1
inactive: dose: 3.12 mg/kg/injection, schedule: Q01DX009 (ip), vehicle: Klucel (hydroxypropylcellulose) (HPC) 110 % of control | dose: 6.25 mg/kg/injection, schedule: Q01DX009 (ip), vehicle: Klucel (hydroxypropylcellulose) (HPC) 108 % of control | dose: 12.5 mg/kg/injection, schedule: Q01DX009 (ip), vehicle: Klucel (hydroxypropylcellulose) (HPC) 106 % of control | dose: 12.5 mg/kg/injection, schedule: Q04DX003 (ip), vehicle: Klucel (hydroxypropylcellulose) (HPC) 107 % of control | dose: 25.0 mg/kg/injection, schedule: Q01DX009 (ip), vehicle: Klucel (hydroxypropylcellulose) (HPC) 106 % of control | dose: 25.0 mg/kg/injection, schedule: Q04DX003 (ip), vehicle: Klucel (hydroxypropylcellulose) (HPC) 91 % of control | [8] 102 % of control | dose: 50.0 mg/kg/injection, schedule: Q04DX003 (ip), vehicle: Klucel (hydroxypropylcellulose) (HPC) 95 % of control | [9] 91 % of control

Nc1cc(=O)[nH]c(S(=O)O)n1
inactive: [8] 100 % of control | [1] 98 % of control | [3] 98 % of control

Cc1ccc(N(CCO)CCO)cc1
inactive: [6] 93 % of control | [7] 102 % of control

C#CC(C)OCC1CO1 (stereo not drawn)
inactive: [12] 86 % of control | [13] 86 % of control | dose: 100.0 mg/kg/injection, schedule: Q04DX003 (ip), vehicle: saline sonified 117 % of control | dose: 200.0 mg/kg/injection, schedule: Q01DX009 (ip), vehicle: saline 93 % of control | dose: 200.0 mg/kg/injection, schedule: Q04DX003 (ip), vehicle: saline sonified 93 % of control

O=C(OCCN1CCCCC1)C(c1ccccc1)C1(O)CCCC1 (stereo not drawn)
inactive: [12] 106 % of control | [13] 116 % of control

O=C1c2ccccc2C(=O)N1OCCCCCCON1C(=O)c2ccccc2C1=O
inactive: [9] 92 % of control | [10] 94 % of control | [11] 97 % of control

COCC1OC(OC(=O)c2ccccc2)C(OC(=O)c2ccccc2)C(OC(=O)c2ccccc2)C1OC (stereo not drawn)
inactive: dose: 12.5 mg/kg/injection, schedule: Q01DX009 (ip), vehicle: saline with Tween-80 97 % of control | dose: 25.0 mg/kg/injection, schedule: Q01DX009 (ip), vehicle: saline with Tween-80 95 % of control | dose: 50.0 mg/kg/injection, schedule: Q01DX009 (ip), vehicle: saline with Tween-80 93 % of control
